According to PubChem BioAssay (NCI):
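Briefly, cells in 96-well plates were exposed to five compound concentrations for 48 h, and endpoints were estimated by linear interpolation. GI50 marks 50% less growth. TGI is the concentration that stops growth completely.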

Tests used:
Test in all cases: NCI-60 cell line screen, 48 h
K-562 leukemia = tested on: K-562 leukemia
UACC-257 melanoma = tested on: UACC-257 melanoma
A498 renal = tested on: A498 renal
NCI/ADR-RES ovarian = tested on: NCI/ADR-RES ovarian
SW-620 colon = tested on: SW-620 colon
SK-MEL-28 melanoma = tested on: SK-MEL-28 melanoma
MALME-3M melanoma = tested on: MALME-3M melanoma
SNB-75 CNS = tested on: SNB-75 CNS
SF-268 CNS = tested on: SF-268 CNS
NCI-H23 lung = tested on: NCI-H23 lung

CC[n+]1c(/C=C/C=C2\N(C)c3ccccc3C2(C)C)sc2ccccc21
GI50 (K-562 leukemia): 4.34 µM | TGI (K-562 leukemia): 9.43 µM | GI50 (UACC-257 melanoma): 4.64 µM | TGI (UACC-257 melanoma): 9.02 µM | GI50 (A498 renal): 5.04 µM | TGI (A498 renal): 12 µM | GI50 (NCI/ADR-RES ovarian): 4.26 µM | TGI (NCI/ADR-RES ovarian): 8.9 µM | GI50 (SW-620 colon): 4.19 µM | TGI (SW-620 colon): 8.27 µM | GI50 (SK-MEL-28 melanoma): 4.17 µM | TGI (SK-MEL-28 melanoma): 7.97 µM | GI50 (MALME-3M melanoma): 4.28 µM | TGI (MALME-3M melanoma): 8.1 µM | GI50 (SNB-75 CNS): 3.7 µM | TGI (SNB-75 CNS): 7.5 µM | GI50 (SF-268 CNS): 4.43 µM | TGI (SF-268 CNS): 8.92 µM | GI50 (NCI-H23 lung): 2.75 µM | TGI (NCI-H23 lung): 7.09 µM

COc1cc(-c2nn(-c3cccc(NC(=O)c4ccc(Cl)c(C(F)(F)F)c4)c3)cc2-c2ccncc2)ccc1Cl
GI50 (K-562 leukemia): 1.21 µM | TGI (K-562 leukemia): > 32.5 µM | GI50 (UACC-257 melanoma): 3.6 µM | TGI (UACC-257 melanoma): > 32.5 µM | GI50 (A498 renal): 1.02 µM | TGI (A498 renal): 7.01 µM | GI50 (NCI/ADR-RES ovarian): 1.18 µM | TGI (NCI/ADR-RES ovarian): 15 µM | GI50 (SW-620 colon): 2.87 µM | TGI (SW-620 colon): > 32.5 µM | GI50 (SK-MEL-28 melanoma): 3.09 µM | TGI (SK-MEL-28 melanoma): > 32.5 µM | GI50 (MALME-3M melanoma): 0.922 µM | TGI (MALME-3M melanoma): 6.68 µM | GI50 (SNB-75 CNS): 1.07 µM | TGI (SNB-75 CNS): 13.2 µM | GI50 (SF-268 CNS): 3.24 µM | TGI (SF-268 CNS): > 32.5 µM | GI50 (NCI-H23 lung): 3.14 µM | TGI (NCI-H23 lung): > 32.5 µM

COc1ccc(N=N/C(C(=O)C(F)(F)F)=C(\O)c2ccc(Cl)cc2)cc1
GI50 (K-562 leukemia): 3.47 µM | TGI (K-562 leukemia): > 100 µM | GI50 (UACC-257 melanoma): 4.57 µM | TGI (UACC-257 melanoma): 36.2 µM | GI50 (A498 renal): 10.9 µM | TGI (A498 renal): 23.8 µM | GI50 (NCI/ADR-RES ovarian): 3.56 µM | TGI (NCI/ADR-RES ovarian): 23.2 µM | GI50 (SW-620 colon): 4.36 µM | TGI (SW-620 colon): > 100 µM | GI50 (SK-MEL-28 melanoma): 7.22 µM | TGI (SK-MEL-28 melanoma): > 100 µM | GI50 (MALME-3M melanoma): 16.1 µM | TGI (MALME-3M melanoma): 85.6 µM | GI50 (SNB-75 CNS): 10.3 µM | TGI (SNB-75 CNS): 37.6 µM | GI50 (SF-268 CNS): 12 µM | TGI (SF-268 CNS): > 100 µM | GI50 (NCI-H23 lung): 11 µM | TGI (NCI-H23 lung): 54.4 µM

O=C1NC(=NCCCc2ccccc2)S/C1=C\c1ccc2ncccc2c1
GI50 (K-562 leukemia): 9.12 µM | TGI (K-562 leukemia): > 25 µM | GI50 (UACC-257 melanoma): 6.73 µM | TGI (UACC-257 melanoma): 22.9 µM | GI50 (A498 renal): 3.81 µM | TGI (A498 renal): 8.09 µM | GI50 (NCI/ADR-RES ovarian): 6.5 µM | TGI (NCI/ADR-RES ovarian): 17.1 µM | GI50 (SW-620 colon): 6.37 µM | TGI (SW-620 colon): > 21.5 µM | GI50 (SK-MEL-28 melanoma): 6.51 µM | TGI (SK-MEL-28 melanoma): 21.1 µM | GI50 (MALME-3M melanoma): 7.43 µM | TGI (MALME-3M melanoma): 19.3 µM | GI50 (SNB-75 CNS): 2.3 µM | TGI (SNB-75 CNS): 6.69 µM | GI50 (SF-268 CNS): 5.39 µM | TGI (SF-268 CNS): 12.5 µM | GI50 (NCI-H23 lung): 6.06 µM | TGI (NCI-H23 lung): 15.8 µM

CSC1NC(c2ccc(Cl)cc2)=C(C#N)C(=O)N1C1OCC(OC(C)=O)C(OC(C)=O)C1OC(C)=O (stereo not given)
TGI (K-562 leukemia): > 100 µM | TGI (UACC-257 melanoma): > 100 µM | TGI (A498 renal): > 100 µM | TGI (NCI/ADR-RES ovarian): > 100 µM | TGI (SW-620 colon): > 100 µM | TGI (SK-MEL-28 melanoma): > 100 µM | TGI (MALME-3M melanoma): > 100 µM | TGI (SNB-75 CNS): > 100 µM | TGI (SF-268 CNS): > 100 µM | TGI (NCI-H23 lung): > 100 µM

COC(=O)[C@H]1CCCN1C(=O)[C@H]1CCCN1C(=O)[C@H](Cc1c[nH]c2ccccc12)NC(=S)Nc1cc(C(F)(F)F)cc(C(F)(F)F)c1
GI50 (K-562 leukemia): 5.71 µM | TGI (K-562 leukemia): > 100 µM | GI50 (UACC-257 melanoma): 5.87 µM | TGI (UACC-257 melanoma): > 100 µM | GI50 (A498 renal): 6.54 µM | TGI (A498 renal): > 100 µM | GI50 (NCI/ADR-RES ovarian): > 100 µM | TGI (NCI/ADR-RES ovarian): > 100 µM | GI50 (SW-620 colon): 9.18 µM | TGI (SW-620 colon): > 100 µM | GI50 (SK-MEL-28 melanoma): 5.83 µM | TGI (SK-MEL-28 melanoma): > 100 µM | GI50 (MALME-3M melanoma): 14.9 µM | TGI (MALME-3M melanoma): > 100 µM | GI50 (SNB-75 CNS): 1.45 µM | TGI (SNB-75 CNS): > 100 µM | GI50 (SF-268 CNS): 8.2 µM | TGI (SF-268 CNS): > 100 µM | GI50 (NCI-H23 lung): 7.22 µM | TGI (NCI-H23 lung): > 100 µM
